Measured values from patent US12195482B1 (Arcus Biosciences, Inc., priority 2022, dated 2025).
pIC50: −log10 of the molar value.

Legend:
p-AXL = target: T1, p-AXL (Homo sapiens, UniProt P30530); experiment: Axl phosphorylation inhibition ELISA in HEK293T cells transfected with NanoLuc-tagged AXL; format: cell-based; details: 1 h compound incubation, media (OptiMEM)
T1 construct: expressed in transfected cells; host or cells: HEK293T
T1 sequence (P30530 26-894): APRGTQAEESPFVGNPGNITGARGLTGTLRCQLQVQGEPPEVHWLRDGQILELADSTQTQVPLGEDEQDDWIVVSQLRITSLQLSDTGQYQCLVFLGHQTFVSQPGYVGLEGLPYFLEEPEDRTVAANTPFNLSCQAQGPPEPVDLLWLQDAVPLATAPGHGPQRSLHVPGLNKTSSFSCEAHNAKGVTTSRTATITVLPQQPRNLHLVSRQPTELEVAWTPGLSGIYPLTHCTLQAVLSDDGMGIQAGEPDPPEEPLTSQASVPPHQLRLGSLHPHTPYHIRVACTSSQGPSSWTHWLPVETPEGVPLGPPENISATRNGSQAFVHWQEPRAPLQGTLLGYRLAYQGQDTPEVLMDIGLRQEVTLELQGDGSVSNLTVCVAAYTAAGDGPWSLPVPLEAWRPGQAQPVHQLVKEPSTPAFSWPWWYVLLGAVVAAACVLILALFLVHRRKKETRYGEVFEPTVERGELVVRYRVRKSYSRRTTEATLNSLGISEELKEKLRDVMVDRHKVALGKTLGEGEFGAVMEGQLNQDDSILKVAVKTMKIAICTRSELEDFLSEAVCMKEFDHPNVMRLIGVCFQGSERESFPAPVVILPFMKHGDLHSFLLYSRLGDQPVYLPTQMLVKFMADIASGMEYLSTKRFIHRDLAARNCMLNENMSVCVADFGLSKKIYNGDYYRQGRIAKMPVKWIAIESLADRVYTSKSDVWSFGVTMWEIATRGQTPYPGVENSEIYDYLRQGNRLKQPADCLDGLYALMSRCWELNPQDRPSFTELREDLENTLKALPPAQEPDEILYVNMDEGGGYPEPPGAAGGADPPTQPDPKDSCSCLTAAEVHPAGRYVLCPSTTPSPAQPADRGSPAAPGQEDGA
In short: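 Phospho-AXL detected by luminescence of NanoLuc tag after capture of cell lysate on biotinylated anti-phospho-tyrosine mAb plates (2 h). Lysates came from transiently transfected HEK293T cells treated 1 h at 37° C with serial 2-fold dilutions (22 points). IC50 by standard 4-parameter logistic fitting.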

Axl = target: T2, Axl (Homo sapiens, UniProt P30530); experiment: Biochemical potency, HTRF KinEASE-TK kinase assay; set-up: purchased Invitrogen; details: 5 nM AXL, 700 μM ATP
T2 sequence (P30530 26-894): T1 sequence (P30530 26-894)
In short: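 Phosphorylation of a biotinylated tyrosine-kinase peptide (800 nM) by AXL (5 nM) or TYRO3/MER (1 nM) is measured at 700 µM ATP after 2 h at room temperature, following 1 h enzyme–compound preincubation. Signal is the time-resolved FRET ratio, converted to percent activity.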

| SMILES | pIC50 (p-AXL) | pIC50 (Axl) |
| --- | --- | --- |
| O=C(c1cccnc1-c1ccc(-c2n[nH]c3ncc(-c4ccc5c(c4)CC[C@@H](N4C6COCC4C6)CC5)cc23)cc1)N1CCCC1 [Example 4, 6-[(7S)-2-(3-{4-[3-(Pyrrolidine-1-carbonyl)pyridin-2-yl]phenyl}-1H-pyrazolo[3,4-b]pyridin-5-yl)-6,7,8,9-tetrahydro-5H-benzo[7]annulen-7-yl]-3-oxa-6-azabicyclo[3.1.1]heptane] | 6.00 to 7.00 | > 7.00 |
| Cn1nncc1-c1ccc(-c2n[nH]c3ncc(-c4ccc5c(c4)CC[C@@H](N4C6COCC4C6)CC5)cc23)cc1 [Example 13, 6-[(7S)-2-{3-[4-(1-Methyl-1H-1,2,3-triazol-5-yl)phenyl]-1H-pyrazolo[3,4-b]pyridin-5-yl}-6,7,8,9-tetrahydro-5H-benzo[7]annulen-7-yl]-3-oxa-6-azabicyclo[3.1.1]heptane] | 6.00 to 7.00 | > 7.00 |
| Cc1cc(F)cnc1-c1ccc(-c2n[nH]c3ncc(-c4ccc5c(c4)CC[C@@H](N4C6COCC4C6)CC5)cc23)cc1 [Example 28, 6-[(7S)-3-[3-[4-(5-Fluoro-3-methylpyridin-2-yl)phenyl]-1H-pyrazolo[3,4-b]pyridin-5-yl]-6,7,8,9-tetrahydro-5H-benzo[7]annulen-7-yl]-3-oxa-6-azabicyclo[3.1.1]heptane] | 6.00 to 7.00 | > 7.00 |
| Cc1cc(F)cnc1-c1ccc(-c2c[nH]c3ncc(-c4ccc5c(c4)CC[C@@H](N4C6COCC4C6)CC5)cc23)cc1 [Example 29, 6-[(7S)-3-[3-[4-(5-Fluoro-3-methylpyridin-2-yl)phenyl]-1H-pyrrolo[2,3-b]pyridin-5-yl]-6,7,8,9-tetrahydro-5H-benzo[7]annulen-7-yl]-3-oxa-6-azabicyclo[3.1.1]heptane] | 6.00 to 7.00 | > 7.00 |
| Cc1cc(-c2ncccc2C)ccc1-c1n[nH]c2ncc(-c3ccc4c(c3)CC[C@@H](N3C5COCC3C5)CC4)cc12 [Example 30, 6-[(7S)-3-[3-[2-Methyl-4-(3-methylpyridin-2-yl)phenyl]-1H-pyrazolo[3,4-b]pyridin-5-yl]-6,7,8,9-tetrahydro-5H-benzo[7]annulen-7-yl]-3-oxa-6-azabicyclo[3.1.1]heptane] | 6.00 to 7.00 | < 6.00 |
| O=c1ccccn1-c1ccc(-c2n[nH]c3ncc(-c4ccc5c(c4)CC[C@@H](N4C6COCC4C6)CC5)cc23)cc1 [Example 31, 1-[4-[5-[(7S)-7-(3-Oxa-6-azabicyclo[3.1.1]heptan-6-yl)-6,7,8,9-tetrahydro-5H-benzo[7]annulen-3-yl]-1H-pyrazolo[3,4-b]pyridin-3-yl]phenyl]pyridin-2-one] | 6.00 to 7.00 | > 7.00 |
| c1ccc(-c2ccc(-c3c[nH]c4ncc(-c5ccc6c(c5)CC[C@@H](N[C@H]5CCCOC5)CC6)cc34)cc2)nc1 [Example 32, (3S)—N-[(7S)-3-[3-(4-Pyridin-2-ylphenyl)-1H-pyrrolo[2,3-b]pyridin-5-yl]-6,7,8,9-tetrahydro-5H-benzo[7]annulen-7-yl]oxan-3-amine] | 6.00 to 7.00 | > 7.00 |
| CN(C)C(=O)c1cccc(-c2ccc(-c3n[nH]c4ncc(-c5ccc6c(c5)CC[C@@H](N5C7COCC5C7)CC6)cc34)cc2)n1 [Example 94, N,N-Dimethyl-6-(4-{5-[(7S)-7-{3-oxa-6-azabicyclo[3.1.1]heptan-6-yl}-6,7,8,9-tetrahydro-5H-benzo[7]annulen-2-yl]-2H-pyrazolo[3,4-b]pyridin-3-yl}phenyl)pyridine-2-carboxamide] | 6.00 to 7.00 | > 7.00 |

The remaining lines, values ahead:

| pIC50 (p-AXL) | pIC50 (Axl) | SMILES |
| --- | --- | --- |
| > 7.00 | > 7.00 | c1cnc(-c2ccc(-c3c[nH]c4ncc(-c5ccc6c(c5)CC[C@@H](N5C7COCC5C7)CC6)cc34)cc2)c(N2CCOCC2)c1 [Example 5, 6-[(7S)-2-(3-{4-[3-(Morpholin-4-yl)pyridin-2-yl]phenyl}-1H-pyrrolo[2,3-b]pyridin-5-yl)-6,7,8,9-tetrahydro-5H-benzo[7]annulen-7-yl]-3-oxa-6-azabicyclo[3.1.1]heptane] |
| > 7.00 | > 7.00 | CN(C)S(=O)(=O)c1cccnc1-c1ccc(-c2c[nH]c3ncc(-c4ccc5c(c4)CC[C@@H](N4C6COCC4C6)CC5)cc23)cc1 [Example 6, N,N-Dimethyl-2-(4-{5-[(7S)-7-{3-oxa-6-azabicyclo[3.1.1]heptan-6-yl}-6,7,8,9-tetrahydro-5H-benzo[7]annulen-2-yl]-1H-pyrrolo[2,3-b]pyridin-3-yl}phenyl)pyridine-3-sulfonamide] |
| > 7.00 | > 7.00 | O=C1CCCN1c1cccnc1-c1ccc(-c2c[nH]c3ncc(-c4ccc5c(c4)CC[C@@H](N4C6COCC4C6)CC5)cc23)cc1 [Example 7, 1-[2-(4-{5-[(7S)-7-{3-Oxa-6-azabicyclo[3.1.1]heptan-6-yl}-6,7,8,9-tetrahydro-5H-benzo[7]annulen-2-yl]-1H-pyrrolo[2,3-b]pyridin-3-yl}phenyl)pyridin-3-yl]pyrrolidin-2-one] |
| > 7.00 | > 7.00 | CC(C)(O)c1cccnc1-c1ccc(-c2n[nH]c3ncc(-c4ccc5c(c4)CC[C@@H](N4C6COCC4C6)CC5)cc23)cc1 [Example 10, 2-[2-(4-{5-[(7S)-7-{3-Oxa-6-azabicyclo[3.1.1]heptan-6-yl}-6,7,8,9-tetrahydro-5H-benzo[7]annulen-2-yl]-1H-pyrazolo[3,4-b]pyridin-3-yl}phenyl)pyridin-3-yl]propan-2-ol] |
| > 7.00 | > 7.00 | CN(C)C(=O)c1ccccc1-c1ccc(-c2n[nH]c3ncc(-c4ccc5c(c4)CC[C@@H](N4C6COCC4C6)CC5)cc23)cc1 [Example 12, N,N-Dimethyl-4′-{5-[(7S)-7-{3-oxa-6-azabicyclo[3.1.1]heptan-6-yl}-6,7,8,9-tetrahydro-5H-benzo[7]annulen-2-yl]-2H-pyrazolo[3,4-b]pyridin-3-yl}-[1,1′-biphenyl]-2-carboxamide] |
| > 7.00 | > 7.00 | Cc1nn(C)nc1-c1ccc(-c2n[nH]c3ncc(-c4ccc5c(c4)CC[C@@H](N4C6COCC4C6)CC5)cc23)cc1 [Example 14, 6-[(7S)-2-{3-[4-(2,5-Dimethyl-2H-1,2,3-triazol-4-yl)phenyl]-1H-pyrazolo[3,4-b]pyridin-5-yl}-6,7,8,9-tetrahydro-5H-benzo[7]annulen-7-yl]-3-oxa-6-azabicyclo[3.1.1]heptane] |
| > 7.00 | > 7.00 | CC(C)(C#N)c1cccnc1-c1ccc(-c2c[nH]c3ncc(-c4ccc5c(c4)CC[C@@H](N4C6COCC4C6)CC5)cc23)cc1 [Example 21, 2-Methyl-2-[2-[4-[5-[(7S)-7-(3-oxa-6-azabicyclo[3.1.1]heptan-6-yl)-6,7,8,9-tetrahydro-5H-benzo[7]annulen-3-yl]-1H-pyrrolo[2,3-b]pyridin-3-yl]phenyl]pyridin-3-yl]propanenitrile] |
| > 7.00 | > 7.00 | OC1(c2cccnc2-c2ccc(-c3c[nH]c4ncc(-c5ccc6c(c5)CC[C@@H](N5C7COCC5C7)CC6)cc34)cc2)CCC1 [Example 22, 1-[2-[4-[5-[(7S)-7-(3-Oxa-6-azabicyclo[3.1.1]heptan-6-yl)-6,7,8,9-tetrahydro-5H-benzo[7]annulen-3-yl]-1H-pyrrolo[2,3-b]pyridin-3-yl]phenyl]pyridin-3-yl]cyclobutan-1-ol] |
| > 7.00 | > 7.00 | Cc1nc(-c2ccc(-c3n[nH]c4ncc(-c5ccc6c(c5)CC[C@@H](N5C7COCC5C7)CC6)cc34)cc2)n(C)n1 [Example 23, 6-[(7S)-2-{3-[4-(1,3-Dimethyl-1H-1,2,4-triazol-5-yl)phenyl]-1H-pyrazolo[3,4-b]pyridin-5-yl}-6,7,8,9-tetrahydro-5H-benzo[7]annulen-7-yl]-3-oxa-6-azabicyclo[3.1.1]heptane] |
| > 7.00 | > 7.00 | Cc1cccnc1-c1ccc(-c2n[nH]c3ncc(-c4ccc5c(c4)CC[C@@H](N4C6COCC4C6)CC5)cc23)nc1 [Example 26, 3-Methyl-6′-{5-[(7S)-7-{3-oxa-6-azabicyclo[3.1.1]heptan-6-yl}-6,7,8,9-tetrahydro-5H-benzo[7]annulen-2-yl]-1H-pyrazolo[3,4-b]pyridin-3-yl}-2,3′-bipyridine] |
